Experimental findings from US20210315893A1 (Galapagos NV, priority 2017, published 2021) are described below.

Test [1] deals with T1, human GPCR sphingosine 1-phosphate receptor 2 (Homo sapiens, UniProt O95136).
T1 construct: host or cells: CHO
As to the kind of experiment: S1PR2 antagonist Ca2+ flux assay. It is filed as cell-based. The following applies: antagonist mode, CHO-S1PR2 cells, S1P at EC80, Ca2+ fluorescence; read-out: S1P2 EC50 (nM), S1P2 antagonist EC50. In a few lines:
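Antagonist mode: 15 min after compound addition, S1P (EC80) stimulates Fluo8-loaded, 1 h-starved CHO-S1PR2 cells, Ca2+ read over 3 min; a prior 3-min read checks compound agonism. EC50 from peak/baseline fluorescence ratio, normalised versus vehicle and S1P EC50 (antagonist) or EC100 (agonist).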
A general note: Calcium assays in cells follow changes in intracellular calcium, usually with a dye or a luminescent sensor.

The target in test [2] is T2, S1PR2 (Homo sapiens, UniProt O95136).
T2 construct: expressed in transfected cells
T2 sequence (O95136 whole entry): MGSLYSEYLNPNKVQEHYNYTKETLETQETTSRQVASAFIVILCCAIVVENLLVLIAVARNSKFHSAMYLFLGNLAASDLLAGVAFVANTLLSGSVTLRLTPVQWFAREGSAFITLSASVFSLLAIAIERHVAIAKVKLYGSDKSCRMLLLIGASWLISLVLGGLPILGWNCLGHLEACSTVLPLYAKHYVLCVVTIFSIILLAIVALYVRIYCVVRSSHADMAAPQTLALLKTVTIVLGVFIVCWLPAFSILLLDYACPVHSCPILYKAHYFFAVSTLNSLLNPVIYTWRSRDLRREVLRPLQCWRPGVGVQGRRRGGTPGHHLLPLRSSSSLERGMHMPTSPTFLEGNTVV
The experiment in a line: S1PR2 binding assay (competition with radioactively labeled S1P, SpA). The following applies: membranes from stable cell line over expressing S1PR2, SpA beads; read-out: S1P2 EC50 (nM), S1PR2 binding EC50. In a few lines: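 Scintillation proximity read-out after 2 h room-temperature incubation of compound, [3H]S1P and S1PR2-overexpressing cell membranes on WGA-coated beads. Buffer: 20 mM Tris pH 7.5, 100 mM NaCl, 10 mM MgCl2, 1 mM Na3VO4, 0.4% fatty-acid-free BSA; plates counted immediately after centrifugation.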

Test [3] concerns HFL-1 cells. The experiment in a line: IL-8 production assay (S1P induced IL-8). The following applies: Homo sapiens, HFL1; S1P (1 μM) induced IL-8 in HFL-1 cells, starvation medium without HSA; read-out: IL8 EC50. Type of test: cell-based. How it is done:
This assay is designed to test inhibitory activity of compounds on S1P induced IL-8 on HFL-1 cells, ahuman fetal lung fibroblast cell line.
Human Fetal Lung cells (HFL-1) are seeded in 96 well plates in growth medium (F12K+10% heat inactivated FBS+l1% Pen/strep). After overnight incubation at 37° C., […] cells are refreshed with starvation medium without HSA (F12K+1% FBS+1% Pen/strep). On day three, compounds are added (10 point serial dilution, 30 μM highest concentration, 1/3 dilution, 0.3% DMSO final) and plates are incubated for one h at 37° C., 5% CO2. Subsequently S1P at 1 μM final concentration is added and plates are incubated for 16 to24 h at 37° C., […] after which the supermatant was collected. IL-8 levels in the supernatant are determined with the IL-8 ELISA of R&D systems.

Test [4] deals with HFL-1 cells. The experiment in a line: IL8 assay in the presence of Human Serum Albumin. The following applies: HFL1, read-out: HSA IL8 EC50.
Method: To evaluate the influence of plasma protein binding of S1P as well as compound, the S1P induced IL-8 levelswereevaluatedin presence of Human Serum Albumin (HSA, equivalent to 40% human serum).
Human Fetal Lung cells (HFL-1) are seeded in 96 well plates in growth medium (F12K+10% heat inactivated FBS+1% Pen/strep). […] On day three, compounds are added (10 point serial dilution, 30 μM highest concentration, 1/3 dilution, 0.3% DMSO final) and plates are incubated for 1 h at 37° C., 5% CO2. Subsequently S1P at 5 μM final concentration is added and plates are incubated for 16 to 24 h at 37° C., 5% COafter which the supernatant was collected. IL-8 levels in the supernatant are determined with the IL-8 ELISA of R&D systems.

T1 sequence (O95136 whole entry): as above

What is called EC50 is the concentration that produces a half-maximal response. On to `COC(C)(C)CNC(=O)Cn1nc(Cc2nc3cc(OCC(F)F)c(C#N)cc3[nH]2)c2ccccc2c1=O` [Compound 182, 2-[4-[[6-cyano-5-(2,2-difluoroethoxy)-1H-benzimidazol-2-yl]methyl]-1-oxo-phthalazin-2-yl]-N-(2-methoxy-2-methyl-propyl)acetamide], for which the EC50 stood at 17.3 nM in test [1], 53.4 nM in test [2], 9.66 nM in test [3] and 54.7 nM in test [4].
`N#Cc1cc2[nH]c(Cc3nn(CC(=O)N4CCC(C#N)CC4)c(=O)c4ccccc34)nc2cc1OCC(F)F` [Compound 219, 2-[[3-[2-(4-cyano-1-piperidyl)-2-oxo-ethyl]-4-oxo-phthalazin-1-yl]methyl]-6-(2,2-difluoroethoxy)-3H-benzimidazole-5-carbonitrile]: the EC50 is 32.4 nM in test [1], 265 nM in test [2], 177 nM in test [3] and 607 nM in test [4].
Taken in the same sequence, the figures for `O=C(Cn1nc(Cc2nc3cc(Cl)c(OCC(F)F)cc3[nH]2)c2ccc(N3CCOCC3)cc2c1=O)N1CCOCC1` [Compound 33, 4-[[5-chloro-6-(2,2-difluoroethoxy)-1H-benzimidazol-2-yl]methyl]-7-morpholino-2-(2-morpholino-2-oxo-ethyl)phthalazin-1-one] were 86.5 nM, 378 nM, 15.6 nM and 129 nM.
In the same order, the values of `N#Cc1cc2[nH]c(Cc3nn(CC(=O)NC4CCCOC4)c(=O)c4ccccc34)nc2cc1OCC(F)F` (stereo not drawn) [Compound 184, 2-[4-[[6-cyano-5-(2,2-difluoroethoxy)-1H-benzimidazol-2-yl)methyl]-1-oxo-phthalazin-2-yl]-N-tetrahydropyran-3-yl-acetamide] are 25.2 nM, 94.3 nM, 23.8 nM and 82.3 nM.
Consider `N#Cc1cc2[nH]c(Cc3nn(C(CN4CCC4)C(=O)O)c(=O)c4ccccc34)nc2cc1OCC(F)F` (stereo not drawn) [Compound 75, 3-(azetidin-1-yl)-2-[4-[[6-cyano-5-(2,2-difluoroethoxy)-1H-benzimidazol-2-yl]methyl]-1-oxo-phthalazin-2-yl]propanoic acid], for which the EC50 in test [1] came out at 3850 nM; in test [2], 2920 nM; in test [3], 938 nM; in test [4], 1300 nM.
In the case of `N#Cc1cc2nc(Cc3nn(CC(=O)N4CCOCC4)c(=O)c4c3CCCC4)[nH]c2cc1OCC(F)(F)F` [Compound 200, 2-[[3-(2-morpholino-2-oxo-ethyl)-4-oxo-5,6,7,8-tetrahydrophthalazin-1-yl]methyl]-6-(2,2,2-trifluoroethoxy)-1H-benzimidazole-5-carbonitrile], the EC50 in test [1] was found to be 8.77 nM; in test [2] it was 93.7 nM; in test [3], 10.6 nM; in test [4] it was 103 nM.
Taken in the same sequence, the figures for `CC1(COc2cc3nc(Cc4nn(CC(=O)O)c(=O)c5ccccc45)[nH]c3cc2Cl)CC1` [Compound 131, 2-[4-[[5-chloro-6-[(1-methylcyclopropyl)methoxy]-1H-benzimidazol-2-yl]methyl]-1-oxo-phthalazin-2-yl]acetic acid] were 13.2 nM, 197 nM, 12 nM and 267 nM.
Taken in the same sequence, the figures for `N#CCCN(C(=O)Cn1nc(Cc2nc3cc(OCC(F)F)c(C#N)cc3[nH]2)c2ccccc2c1=O)C1CC1` [Compound 181, 2-[4-[[6-cyano-5-(2,2-difluoroethoxy)-1H-benzimidazol-2-yl]methyl]-1-oxo-phthalazin-2-yl]-N-(2-cyanoethyl)-N-cyclopropyl-acetamide] were 95.8 nM, 297 nM, 544 nM and 906 nM.
Taken in the same sequence, the figures for `CN(C)[C@@H]1CCN(C(=O)Cn2nc(Cn3cc4cc(OCC(F)F)c(C#N)cc4n3)c3ccccc3c2=O)C1` [Compound 206] were at least 19800 nM, 3620 nM, 2990 nM and 2630 nM.
